# Assay results: patent publication US7871996B2, “Methods of inhibiting nitric oxide synthase using corrin derivatives” (The United States of America as represented by the …, priority 2006, dated 2011)
# Where a name gives a salt, the structure may show the parent alone.
# How the values were obtained:
# NOS1 (nNOS) = target: T1, NOS1 (nNOS) (Homo sapiens, UniProt P29475); assay: NOS1 enzymatic activity: conversion of 14-C-L-arginine to L-citrulline; type: biochemical
# T1 construct: made in house
# Procedure: (§1) The enzymatic activity of purified NOS1, NOS2, or NOS3 to convert radiolabeled L-arginine to L-citrulline was assessed in presence or absence of different concentrations of (A) hydroxocobalamin, (B) cobinamide, (C) dicyanocobinamide, or (D) cyanocobalamin. Results are expressed as percent inhibition.
# (§2) The effect of methylcobalamin (not exposed to light or exposed to light) on nNOS is shown in FIG. 3A; its effect on iNOS is shown in FIG. 3B. The effect of adenosylcobalamin (not exposed to light or exposed to light) on nNOS is shown in FIG. 3C; its effect on iNOS is shown in FIG. 3D. The agents were protected from light or exposed to light for 60 minutes. The enzyme assays were done in near-dark conditions (as low light as possible). Light removes the methyl- or adenosyl-group from the agent resulting in hydroxocobalamin.
# (§3) Briefly, cells were treated with 500 units/ml of murine interferon-gamma for 24 hours, incubated with 10 uM DAF-FM for 30 minutes, and washed. Then the cells were then assessed for fluorescence in a platereader fluorimeter. The degree of NO formation is proportional to the degree of fluorescence of DfAF-FM. To determine NOS activity, we incubated 14-C-labeled-L-arginine was at 37° C. with 5 nM recombinant NOS1, NOS2 or NOS3 with HEPES buffer, dithiothreitol, tetrahydrobiopterin, FAD, and NADPH in the absence or presence of different concentrations of the compound in question for 60 minutes (27, 28). The reaction was stopped by adding excess L-citrulline, after which 14-C-labeled L-arginine was separated from 14-C-labeled citrulline using a Dowex-50 column (with the 14-C-labeled L-arginine being bound to the Dowex-50, and 14-C-labeled citrulline eluting free from the column). Radioactivity was determined with a scintillation counter, and percentage NOS inhibition was calculated. We determined that none of the compounds quenched detection of the radioactivity. Spectroscopy was determined using a Hitachi U2010 spectrometer (San Jose, Calif.) as noted before (17, 24, 25).
# [1] = stated as known; cited from earlier work
# NOS2 (iNOS) = target: T2, NOS2 (iNOS) (Homo sapiens, UniProt P35228); assay: NOS2 enzymatic activity: conversion of 14-C-L-arginine to L-citrulline; type: biochemical
# T2 construct: made in house
# Procedure: as §1, §2, §3
# [2] = UV/Vis spectroscopy of reaction of agent with NO; type: binding
# Procedure: NO reacts with OH-Cbl as indicated by the change in the UV/Vis spectrum (shift of peak from 352 nm to 354-355 nm, and alteration in the 520 nm region).
# as §3, with “25). […]” for “25).”
# [3] = target: T3, purified, recombinant NOS2 (Homo sapiens, UniProt P35228); assay: UV/Vis spectroscopy of CO binding to reduced NOS2 heme; conditions: reduced conditions (dithionite), CO as oxygen mimic
# T3 construct: made in house
# From the text: Oxygen reacts directly with the reduced iron of the heme group in NOS. Carbon monoxide (CO) (that simulates O2 in binding to the reduced iron) was used to determine the influence of CN2-Cbi on oxygen binding to NOS. The reaction of purified NOS2 with CO in a reduced state (dithionite) markedly changed the UV/Vis spectrum, with appearance of the typical CO-bound Fe^+2-heme peak at 445 nm (FIG. 4A). However, in the presence of CN2-Cbi, there was no appearance of the 445 nm peak induced by CO in a reduced state (FIG. 4B).
# Briefly, cells were treated with 500 units/ml of murine interferon-gamma for 24 hours, incubated with 10 uM DAF-FM for 30 minutes, and washed. Then the cells were then assessed for fluorescence in a platereader fluorimeter. The degree of NO formation is proportional to the degree of fluorescence of DfAF-FM. […] Radioactivity was determined with a scintillation counter, and percentage NOS inhibition was calculated. We determined that none of the compounds quenched detection of the radioactivity. Spectroscopy was determined using a Hitachi U2010 spectrometer (San Jose, Calif.) as noted before (17, 24, 25). […]
# Raw 264 cells = assay: NO formation by activated Raw 264 mouse macrophage cells (DAF-FM fluorescence); type: cell-based; conditions: interferon-gamma, 24 hours, 0, 0.5, 2.0, or 8.0 uM
# Procedure: (§4) Cells of the mouse macrophage cell line J774 were incubated 3 days with 10 ng/ml endotoxin and 100 units/ml murine interferon gamma to activate the macrophage-like cells for NO production. The cultures also contained 0 to 62.5 uM dicyanocobinamide for the 3 days. At the end of the culture period, supernatant cell NO production was determined. […] Cells of the mouse macrophage cell line Raw 264 were incubated 24 hours with 100 units/ml murine interferon gamma to activate the macrophage-like cells for NO production. The cultures also contained 0, 0.5, 2.0, or 8.0 uM dicyanocobinamide for the entire culture period. At the end of the culture period the cells were assessed for NO production using DAF-MN and a fluorimeter. Results are expressed as percent inhibition. The error bars show the SEM.
# We prepared highly purified, recombinant NOS1 and NOS2 (24,25). […] NO levels were measured using a “Nitric Oxide Analyzer” (Sievers, Boulder, Colo.) or using diaminofluorescein-FM (4-amino-5-methylamino-2′,7′-difluorofluorescein) from Invitrogen-Molecular Probes.
# Briefly, cells were treated with 500 units/ml of murine interferon-gamma for 24 hours, incubated with 10 uM DAF-FM for 30 minutes, and washed. Then the cells were then assessed for fluorescence in a platereader fluorimeter. The degree of NO formation is proportional to the degree of fluorescence of DfAF-FM. […]
# J774 cells = assay: NO formation by activated J774 mouse macrophage cells; type: cell-based; conditions: interferon-gamma and endotoxin, 3 days, 0 to 62.5 uM
# Procedure: as §4
# We prepared highly purified, recombinant NOS1 and NOS2 (24,25). Recombinant bovine NOS3 was purchased from Cayman (Ann Arbor, Mich.). Tetrahydrobiopterin and carboxy-PTIO {2-(4-Carboxyphenyl)-4,4,5,5-tetramethylimidazoline-1-oxyl-3-oxide (potassium salt)} were from Alexis (San Diego, Calif.). 14-C-labeled L-arginine and 14-C-labeled citrulline were from Amersham/GE Healthcare (Waukesha, Wis.). […] NO levels were measured using a “Nitric Oxide Analyzer” (Sievers, Boulder, Colo.) or using diaminofluorescein-FM (4-amino-5-methylamino-2′,7′-difluorofluorescein) from Invitrogen-Molecular Probes.
# [4] = after light illumination of the agent
# T3 sequence (P35228 whole entry): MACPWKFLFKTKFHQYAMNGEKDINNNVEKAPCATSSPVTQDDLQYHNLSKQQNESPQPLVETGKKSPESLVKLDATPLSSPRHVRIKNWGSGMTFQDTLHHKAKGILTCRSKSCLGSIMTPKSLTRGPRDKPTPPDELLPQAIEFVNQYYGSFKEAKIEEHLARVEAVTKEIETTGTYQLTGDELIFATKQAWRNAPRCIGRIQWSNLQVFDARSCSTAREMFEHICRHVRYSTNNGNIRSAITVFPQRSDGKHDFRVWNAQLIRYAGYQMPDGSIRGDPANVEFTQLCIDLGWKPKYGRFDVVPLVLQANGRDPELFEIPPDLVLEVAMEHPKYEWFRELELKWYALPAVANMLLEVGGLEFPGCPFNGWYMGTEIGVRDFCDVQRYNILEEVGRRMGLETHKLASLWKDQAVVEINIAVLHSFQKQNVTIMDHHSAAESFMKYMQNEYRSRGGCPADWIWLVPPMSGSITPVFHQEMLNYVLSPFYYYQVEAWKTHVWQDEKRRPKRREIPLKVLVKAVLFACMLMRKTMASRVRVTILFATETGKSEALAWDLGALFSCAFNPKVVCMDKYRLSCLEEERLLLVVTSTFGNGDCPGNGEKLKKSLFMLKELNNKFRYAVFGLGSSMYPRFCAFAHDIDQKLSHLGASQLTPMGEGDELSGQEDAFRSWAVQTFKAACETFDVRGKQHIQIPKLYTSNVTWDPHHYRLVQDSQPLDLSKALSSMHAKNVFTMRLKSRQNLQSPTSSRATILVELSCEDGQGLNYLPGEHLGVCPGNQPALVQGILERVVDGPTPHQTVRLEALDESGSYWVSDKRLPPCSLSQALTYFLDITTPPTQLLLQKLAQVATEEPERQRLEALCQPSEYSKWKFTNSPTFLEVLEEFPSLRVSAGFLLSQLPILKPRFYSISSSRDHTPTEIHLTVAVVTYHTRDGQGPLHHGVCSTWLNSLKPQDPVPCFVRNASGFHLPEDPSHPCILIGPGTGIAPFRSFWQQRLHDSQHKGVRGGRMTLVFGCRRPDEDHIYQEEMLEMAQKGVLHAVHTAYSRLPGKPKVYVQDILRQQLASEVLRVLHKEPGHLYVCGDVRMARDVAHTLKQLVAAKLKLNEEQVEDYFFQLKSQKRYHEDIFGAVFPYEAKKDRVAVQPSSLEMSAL
compound,measurement,setting,value
C/C1=C2/[N-][C@H]([C@H](CC(N)=O)[C@@]2(C)CCC(=O)NC[C@@H](C)O)[C@]2(C)N=C(/C(C)=C3N=C(/C=C4N=C1[C@@H](CCC(N)=O)C\4(C)C)[C@@H](CCC(N)=O)[C@]\3(C)CC(N)=O)[C@@H](CCC(N)=O)[C@]2(C)CC(N)=O.[Co+3] [Cobinamide],NOS1 inhibition (in words),NOS1 (nNOS); purified recombinant NOS1,potent
same,ability to bind and scavenge NO,[1],able to bind and scavenge NO
same,NOS2 inhibition (in words),NOS2 (iNOS); purified recombinant NOS2,potent
Cyanocobalamin,NOS1 inhibition (in words),NOS1 (nNOS); purified recombinant NOS1,much less activity
same,NOS2 inhibition (in words),NOS2 (iNOS); purified recombinant NOS2,much less activity
C/C1=C2/[N-][C@H]([C@H](CC(N)=O)[C@@]2(C)CCC(=O)NC[C@H](C)OP(=O)([O-])O[C@H]2[C@@H](O)[C@@H](n3cnc4cc(C)c(C)cc43)O[C@@H]2CO)[C@]2(C)N=C(/C(C)=C3N=C(/C=C4N=C1[C@@H](CCC(N)=O)C\4(C)C)[C@@H](CCC(N)=O)[C@]\3(C)CC(N)=O)[C@@H](CCC(N)=O)[C@]2(C)CC(N)=O.[CH3-].[Co+3] [Methylcobalamin],NOS1 inhibition (in words),NOS1 (nNOS); [4],inhibitory activity (comparable to native OH-Cbl)
same,NOS1 inhibition (in words),NOS1 (nNOS); agent not exposed to light,very little ability to inhibit NOS activity
same,NOS2 inhibition (in words),NOS2 (iNOS); [4],inhibitory activity (comparable to native OH-Cbl)
same,NOS2 inhibition (in words),NOS2 (iNOS); agent not exposed to light,very little ability to inhibit NOS activity
"CC1(C)N([O])C(c2ccc(C(=O)O)cc2)=[N+]([O-])C1(C)C [Carboxy-PTIO, 2-(4-Carboxyphenyl)-4,4,5,5-tetramethylimidazoline-1-oxyl-3-oxide (potassium salt)]",NOS1 inhibition (in words),NOS1 (nNOS); purified recombinant NOS1,does not inhibit NOS
same,EC50,"NOS1 (nNOS); purified recombinant NOS1, 5 nM, 60 minutes, 37° C., read-out: ED50 NOS1",1360 µM
same,NOS2 inhibition (in words),NOS2 (iNOS); purified recombinant NOS2,does not inhibit NOS
same,EC50,"NOS2 (iNOS); purified recombinant NOS2, 5 nM, 60 minutes, 37° C., read-out: ED50 NOS2",1360 µM
C/C1=C2/[N-]C([C@H](CC(N)=O)[C@@]2(C)CCC(=O)NCC(C)O)[C@]2(C)N=C(/C(C)=C3N=C(/C=C4N=C1[C@@H](CCC(N)=O)C\4(C)C)[C@@H](CCC(N)=O)[C@]\3(C)CC(N)=O)[C@@H](CCC(N)=O)[C@]2(C)CC(N)=O.[C-]#N.[C-]#N.[Co] (stereo partly drawn) [Dicyanocobinamide],NOS1 inhibition (in words),NOS1 (nNOS); purified recombinant NOS1,potent
same,reaction with NO (change in UV/visible spectrum),[2],did not react
same,CO-induced spectral changes in NOS2 (445 nm peak),[3],markedly diminished
same,NOS2 inhibition (in words),NOS2 (iNOS); purified recombinant NOS2,potent
same,inhibition of NO production,Raw 264 cells,dose-dependent inhibition
same,inhibition of NO production,J774 cells,dose-dependent inhibition
C/C1=C2/[N-][C@H]([C@H](CC(N)=O)[C@@]2(C)CCC(=O)NC[C@@H](C)OP(=O)([O-])O[C@H]2[C@@H](O)[C@@H](n3cnc4cc(C)c(C)cc43)O[C@@H]2CO)[C@]2(C)N=C(/C(C)=C3N=C(/C=C4N=C1[C@@H](CCC(N)=O)C\4(C)C)[C@@H](CCC(N)=O)[C@]\3(C)CC(N)=O)[C@@H](CCC(N)=O)[C@]2(C)CC(N)=O.[Co+3].[OH-] [Hydroxocobalamin],NOS1 inhibition (in words),NOS1 (nNOS); purified recombinant NOS1,potent
same,reaction with NO (change in UV/visible spectrum),[2],reacted
same,ability to bind and scavenge NO,[1],able to bind and scavenge NO
same,NOS2 inhibition (in words),NOS2 (iNOS); purified recombinant NOS2,potent
C/C1=C2/[N-][C@H]([C@H](CC(N)=O)[C@@]2(C)CCC(=O)NC[C@@H](C)OP(=O)([O-])O[C@H]2[C@@H](O)[C@@H](n3cnc4cc(C)c(C)cc43)O[C@@H]2CO)[C@]2(C)N=C(/C(C)=C3N=C(/C=C4N=C1[C@@H](CCC(N)=O)C\4(C)C)[C@@H](CCC(N)=O)[C@]\3(C)CC(N)=O)[C@@H](CCC(N)=O)[C@]2(C)CC(N)=O.[CH2-][C@H]1O[C@@H](n2cnc3c(N)ncnc32)[C@H](O)[C@@H]1O.[Co] [Adenosylcobalamin],NOS1 inhibition (in words),NOS1 (nNOS); [4],inhibitory activity (comparable to native OH-Cbl)
same,NOS1 inhibition (in words),NOS1 (nNOS); agent not exposed to light,very little ability to inhibit NOS activity
same,NOS2 inhibition (in words),NOS2 (iNOS); [4],inhibitory activity (comparable to native OH-Cbl)
same,NOS2 inhibition (in words),NOS2 (iNOS); agent not exposed to light,very little ability to inhibit NOS activity
